# Legend:
# [1] = Solubility of the compound; assay type: physicochemical
# [2] = Tmax in C57 mouse at 10 mg/kg, po; assay type: ADME, organism-based; parameters: dose 10 mg/kg, route oral; conditions: in vivo
# [3] = Cmax in C57 mouse at 10 mg/kg, po; assay type: ADME, organism-based; parameters: dose 10 mg/kg, route oral; conditions: in vivo
# [4] = AUC (0 to last) in C57 mouse at 10 mg/kg, po; assay type: ADME, organism-based; parameters: dose 10 mg/kg, route oral, time 0 - last; conditions: plasma
# [5] = target: T1, Oxysterols receptor LXR-beta (Homo sapiens, UniProt P55055); conditions: huh-7
# [6] = target: T1, Oxysterols receptor LXR-beta
# [7] = target: T2, Oxysterols receptor LXR-alpha (Homo sapiens, UniProt Q13133); conditions: huh-7
# T2 sequence (Q13133 whole entry): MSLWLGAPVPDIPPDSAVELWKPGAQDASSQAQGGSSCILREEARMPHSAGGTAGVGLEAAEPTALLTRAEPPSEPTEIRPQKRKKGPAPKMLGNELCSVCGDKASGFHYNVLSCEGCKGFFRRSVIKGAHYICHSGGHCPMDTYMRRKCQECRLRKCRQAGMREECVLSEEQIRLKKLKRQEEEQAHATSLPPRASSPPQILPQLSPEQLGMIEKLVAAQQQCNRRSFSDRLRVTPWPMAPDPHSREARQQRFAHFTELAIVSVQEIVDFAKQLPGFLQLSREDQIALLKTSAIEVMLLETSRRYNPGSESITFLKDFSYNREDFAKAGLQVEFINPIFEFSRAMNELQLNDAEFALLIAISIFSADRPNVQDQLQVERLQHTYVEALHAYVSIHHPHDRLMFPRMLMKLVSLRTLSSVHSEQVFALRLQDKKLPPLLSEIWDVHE
# [8] = target: T2, Oxysterols receptor LXR-alpha
# [9] = Tmax in C57 mouse at 2.5 mg/kg, po; assay type: ADME, organism-based; parameters: dose 2.5 mg/kg, route oral; conditions: in vivo
# [10] = AUC (0 to last) in C57 mouse at 2.5 mg/kg, po; assay type: ADME, organism-based; parameters: time 0 - last, dose 2.5 mg/kg, route oral; conditions: plasma
# [11] = Cmax in C57 mouse at 2.5 mg/kg, po; assay type: ADME, organism-based; parameters: dose 2.5 mg/kg, route oral; conditions: in vivo
# [12] = Half life in mouse liver microsomes; assay type: ADME, Microsome
# [13] = system: HepG2; test: Cytotoxic effect as decreased triglyceride level in HepG2 cells after 10 uM treatment; assay type: cell-based; conditions: human, hepg2, 10 µM
# [14] = Half life in C57 mouse at 10 mg/kg, po; assay type: ADME, organism-based; parameters: dose 10 mg/kg, route oral; conditions: in vivo
# [15] = Half life in human liver microsomes; assay type: ADME, Microsome
# [16] = system: HepG2; test: Cytotoxic effect as decreased triglyceride level in HepG2 cells after 3 uM treatment; assay type: cell-based; conditions: human, hepg2, 3 µM
# [17] = system: THP-1; test: Induction of ABCA1 mRNA upregulation in human THP1 cells relative to T0901317; assay type: functional
# [18] = system: THP-1; test: cells; conditions: Homo sapiens
# [19] = Half life in rat liver microsomes; assay type: ADME, Microsome
# [20] = system: HepG2; test: Increase in cellular triglyceride level in human HepG2 cells relative to T0901317; assay type: functional
# [21] = system: HepG2; test: cells; conditions: Homo sapiens
# T1 sequence (P55055 whole entry): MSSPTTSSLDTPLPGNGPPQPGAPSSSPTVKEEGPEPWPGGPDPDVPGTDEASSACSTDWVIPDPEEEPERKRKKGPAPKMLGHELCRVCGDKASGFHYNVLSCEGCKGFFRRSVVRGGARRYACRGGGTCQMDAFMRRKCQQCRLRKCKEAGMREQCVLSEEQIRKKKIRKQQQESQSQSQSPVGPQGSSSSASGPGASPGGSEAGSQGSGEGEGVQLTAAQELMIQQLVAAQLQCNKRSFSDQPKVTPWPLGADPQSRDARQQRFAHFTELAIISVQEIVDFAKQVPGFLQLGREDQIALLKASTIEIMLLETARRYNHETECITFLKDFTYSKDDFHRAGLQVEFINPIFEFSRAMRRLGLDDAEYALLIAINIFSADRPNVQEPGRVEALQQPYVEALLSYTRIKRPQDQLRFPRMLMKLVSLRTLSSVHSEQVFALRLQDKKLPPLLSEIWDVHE
Compound,solubility [1],half-life [12],half-life [15],Efficacy [17],EC50 [18],half-life [19],Efficacy [20],EC50 [21],also measured
Cc1nc2c(C(F)(F)F)cccc2n1-c1cccc(Oc2cccc(S(C)(=O)=O)c2)c1,214 µg/mL,–,–,–,–,–,–,–,Tmax [2]: 120 min; Cmax [3]: 614 ng/mL; AUC(0-t) [4]: 8940 ng·h/mL
CC(C)c1nc2c(C(F)(F)F)cccn2c1-c1ccc(-c2cccc(S(C)(=O)=O)c2)cc1,–,–,–,–,–,–,–,–,EC50 [5]: Not Active
CC(C)c1nc2c(C(F)(F)F)cccn2c1-c1ccc(-c2ccc(S(C)(=O)=O)cc2)cc1,–,–,–,–,–,–,–,–,IC50 [6]: > 1000 nM; EC50 [5]: Not Active; EC50 [7]: Not Active; IC50 [8]: > 1000 nM
Cc1cnc2c(C(F)(F)F)cccc2c1-c1cccc(Oc2cccc(S(C)(=O)=O)c2)c1,< 1 µg/mL,–,–,–,–,–,–,–,Tmax [9]: 120 min; AUC(0-t) [10]: 1690 ng·h/mL; Cmax [11]: 457 ng/mL
CCS(=O)(=O)c1cccc(Oc2cccc(-c3c(C)nc4c(C(F)(F)F)cccn34)c2)c1,68 µg/mL,30 min,21 min,100%,130 nM,30 min,–,–,Tmax [2]: 60 min; Decreased_triglyceride [13]: Cytotoxic potential; half-life [14]: 366 min; Cmax [3]: 1420 ng/mL; Decreased_triglyceride [16]: Cytotoxic potential; AUC(0-t) [4]: 7790 ng·h/mL
Cc1nc2c(C(F)(F)F)cccn2c1-c1cccc(Oc2cccc(S(C)(=O)=O)c2)c1,> 100 µg/mL,30 min,30 min,99%,125 nM,30 min,8%,72 nM,Tmax [2]: 15 min; half-life [14]: 270 min; Cmax [3]: 1140 ng/mL; Decreased_triglyceride [16]: Cytotoxic potential; AUC(0-t) [4]: 4670 ng·h/mL
CC(C)c1nc2c(C(F)(F)F)cccn2c1-c1cccc(OCc2ccc(S(C)(=O)=O)cc2)c1,–,–,–,–,–,–,–,–,IC50 [6]: > 1000 nM; IC50 [8]: > 1000 nM
CCc1nc2c(C(F)(F)F)cccn2c1-c1cccc(Oc2cccc(S(C)(=O)=O)c2)c1,228 µg/mL,20 min,30 min,65%,243 nM,30 min,38%,227 nM,–
CS(=O)(=O)c1cccc(Oc2cccc(-c3c(Cc4ccccc4)nc4c(C(F)(F)F)cccn34)c2)c1,3 µg/mL,2 min,19 min,105%,120 nM,7 min,81%,65 nM,–
CS(=O)(=O)c1cccc(Oc2cccc(-c3c(CN4CCCCC4)nc4c(C(F)(F)F)cccn34)c2)c1,73 µg/mL,2 min,3 min,100%,44 nM,5 min,26%,128 nM,–
CS(=O)(=O)c1cccc(Oc2cccc(-c3c(CN4CCSC4)nc4c(C(F)(F)F)cccn34)c2)c1,1 µg/mL,3 min,6 min,98%,10 nM,23 min,36%,42 nM,–
O=S(=O)(c1ccccc1)N(CC(F)(F)F)c1ccc(C(O)(C(F)(F)F)C(F)(F)F)cc1 [T091317],–,30 min,30 min,100%,–,30 min,–,–,–
